Test system: 454973-116-R2-J3-PDC spheroids, percent test/control viability
Assay: Anticancer human tumor 454973-116-R2-J3-PDC patient-derived pancreatic carcinoma cell line growth inhibition [CLK]
Settings: spheroids with HUVEC and MSC; for IC50: curve of first compound; for viability, T/C: stronger effect = lower value; active = viability on the fitted dose curve at most 10% of control; inactive = the rest
Summary of the method: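 Multi-cell-type spheroids combined patient-derived tumor cells with HUVEC endothelial cells and human mesenchymal stem cells. Paired agents were dosed in half-log steps down from about clinical Cmax, or from 10 microM where Cmax was unknown.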
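Note: spheroids exposed to compounds for 7 days before readout.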

CC(C)CC(NC(=O)C(Cc1ccccc1)NC(=O)c1cnccn1)B(O)O (centres undefined) + CNC(=O)c1ccc(Nc2nc(OC3CCCC3)c3c(-c4ccc5nc(C)oc5c4)c[nH]c3n2)c(OC)c1
inactive: viability, T/C (second compound 0.0316 µM, first compound 0.000949 µM) 104% | viability, T/C (second compound 0.0316 µM, first compound 0.003 µM) 41% | viability, T/C (second compound 0.1 µM, first compound 0.000949 µM) 108% | viability, T/C (second compound 0.1 µM, first compound 0.003 µM) 48.3% | viability, T/C (second compound 0.316 µM, first compound 0.000949 µM) 54.1% | viability, T/C (second compound 0.316 µM, first compound 0.003 µM) 18.6% | viability, T/C (second compound 1 µM, first compound 0.000949 µM) 41.6% | viability, T/C (second compound 3.16 µM, first compound 0.000949 µM) 30.4% | viability, T/C (second compound 10 µM, first compound 0.000949 µM) 28.3%
2.55 nM: IC50 (second compound 0.0316 µM)
< 0.949 nM: IC50 (second compound 1 µM) | IC50 (second compound 3.16 µM) | IC50 (second compound 10 µM)
1.08 nM: IC50 (second compound 0.316 µM)
active: viability, T/C (second compound 0.0316 µM, first compound 0.00949 µM) 3.37% | viability, T/C (second compound 0.0316 µM, first compound 0.03 µM) 3.93% | viability, T/C (second compound 0.0316 µM, first compound 0.0949 µM) 1% | viability, T/C (second compound 0.0316 µM, first compound 0.3 µM) 1.85% | viability, T/C (second compound 0.1 µM, first compound 0.00949 µM) 0.31% | viability, T/C (second compound 0.1 µM, first compound 0.03 µM) 2.58% | viability, T/C (second compound 0.1 µM, first compound 0.0949 µM) 2.61% | viability, T/C (second compound 0.1 µM, first compound 0.3 µM) 0.65% | viability, T/C (second compound 0.316 µM, first compound 0.00949 µM) 1.42% | viability, T/C (second compound 0.316 µM, first compound 0.03 µM) 3.86% | viability, T/C (second compound 0.316 µM, first compound 0.0949 µM) 1.32% | viability, T/C (second compound 0.316 µM, first compound 0.3 µM) 0.81% | viability, T/C (second compound 1 µM, first compound 0.003 µM) 7.07% | viability, T/C (second compound 1 µM, first compound 0.00949 µM) 2.43% | viability, T/C (second compound 1 µM, first compound 0.03 µM) 2.96% | viability, T/C (second compound 1 µM, first compound 0.0949 µM) 3.35% | viability, T/C (second compound 1 µM, first compound 0.3 µM) 1.14% | viability, T/C (second compound 3.16 µM, first compound 0.003 µM) 3.95% | viability, T/C (second compound 3.16 µM, first compound 0.00949 µM) 1.54% | viability, T/C (second compound 3.16 µM, first compound 0.03 µM) 1.66% | viability, T/C (second compound 3.16 µM, first compound 0.0949 µM) 2.98% | viability, T/C (second compound 3.16 µM, first compound 0.3 µM) 0.23% | viability, T/C (second compound 10 µM, first compound 0.003 µM) 2.63% | viability, T/C (second compound 10 µM, first compound 0.00949 µM) 1.46% | viability, T/C (second compound 10 µM, first compound 0.03 µM) 3.63% | viability, T/C (second compound 10 µM, first compound 0.0949 µM) 1.96% | viability, T/C (second compound 10 µM, first compound 0.3 µM) 0.7%
2.9 nM: IC50 (second compound 0.1 µM)

CC1COCCN1c1cc(C2(S(C)(=N)=O)CC2)nc(-c2ccnc3[nH]ccc23)n1 (centres undefined) + CNC(=O)c1ccc(Nc2nc(OC3CCCC3)c3c(-c4ccc5nc(C)oc5c4)c[nH]c3n2)c(OC)c1
7330 nM: IC50 (second compound 0.1 µM)
inactive: viability, T/C (second compound 0.0316 µM, first compound 0.0316 µM) 96.7% | viability, T/C (second compound 0.0316 µM, first compound 0.1 µM) 103% | viability, T/C (second compound 0.0316 µM, first compound 0.316 µM) 97.8% | viability, T/C (second compound 0.0316 µM, first compound 1 µM) 101% | viability, T/C (second compound 0.0316 µM, first compound 3.16 µM) 73.3% | viability, T/C (second compound 0.0316 µM, first compound 10 µM) 34.2% | viability, T/C (second compound 0.1 µM, first compound 0.0316 µM) 103% | viability, T/C (second compound 0.1 µM, first compound 0.1 µM) 97.5% | viability, T/C (second compound 0.1 µM, first compound 0.316 µM) 94.7% | viability, T/C (second compound 0.1 µM, first compound 1 µM) 93.6% | viability, T/C (second compound 0.1 µM, first compound 3.16 µM) 84.4% | viability, T/C (second compound 0.1 µM, first compound 10 µM) 37.4% | viability, T/C (second compound 0.316 µM, first compound 0.0316 µM) 37% | viability, T/C (second compound 0.316 µM, first compound 0.1 µM) 43.9% | viability, T/C (second compound 0.316 µM, first compound 0.316 µM) 45.1% | viability, T/C (second compound 0.316 µM, first compound 1 µM) 40.1% | viability, T/C (second compound 0.316 µM, first compound 3.16 µM) 48.3% | viability, T/C (second compound 0.316 µM, first compound 10 µM) 29.5% | viability, T/C (second compound 1 µM, first compound 0.0316 µM) 27.9% | viability, T/C (second compound 1 µM, first compound 0.1 µM) 30.9% | viability, T/C (second compound 1 µM, first compound 0.316 µM) 30.5% | viability, T/C (second compound 1 µM, first compound 1 µM) 27.3% | viability, T/C (second compound 1 µM, first compound 3.16 µM) 25.3% | viability, T/C (second compound 1 µM, first compound 10 µM) 15.8% | viability, T/C (second compound 3.16 µM, first compound 0.0316 µM) 30.4% | viability, T/C (second compound 3.16 µM, first compound 0.1 µM) 24.3% | viability, T/C (second compound 3.16 µM, first compound 0.316 µM) 28.9% | viability, T/C (second compound 3.16 µM, first compound 1 µM) 28.1% | viability, T/C (second compound 3.16 µM, first compound 3.16 µM) 19.3% | viability, T/C (second compound 3.16 µM, first compound 10 µM) 12.3% | viability, T/C (second compound 10 µM, first compound 0.0316 µM) 29.8% | viability, T/C (second compound 10 µM, first compound 0.1 µM) 27.3% | viability, T/C (second compound 10 µM, first compound 0.316 µM) 27.5% | viability, T/C (second compound 10 µM, first compound 1 µM) 25.5% | viability, T/C (second compound 10 µM, first compound 3.16 µM) 17.4% | viability, T/C (second compound 10 µM, first compound 10 µM) 10.3%
6280 nM: IC50 (second compound 0.0316 µM)
< 31.6 nM: IC50 (second compound 0.316 µM) | IC50 (second compound 1 µM) | IC50 (second compound 3.16 µM) | IC50 (second compound 10 µM)

Reference: PubChem BioAssay AID2060618 (Molecular Pharmacology Branch, DTP, NCI, 2025)
